Results on 4 molecules are retold here after patent publication US20180057467A1, “NOVEL TRIAZOLE DERIVATIVES” (BAYER CROPSCIENCE AKTIENGESELLSCHAFT, priority 2015, published 2018).

Each structure is given as a SMILES string.

The nature of data set [1]: LogP by HPLC on reversed phase columns (EEC directive 79/831 Annex V.A8). It counts as physicochemical. The note with it: LogP. How it is done: [table] If more than one Log P value is available within the same method, all the values are given and separated by “+”. […] Lambda-max-values were determined using UV-spectra from 200 nm to 400 nm and the peak values of the chromatographic signals.

Another data set relates to Venturia inaequalis. The experiment in a line: Example T: in vivo preventive test on Venturia test (apples), comparison vs. known compounds. Conditions: rate of application 10 ppm, evaluated 10 days after inoculation. How it is done:
Example T: In Vivo Preventive Test on Venturia Test (Apples) Comparison of Compounds According to the Invention Vs. Known Compounds
The plants are then placed in a greenhouse at approximately 21° C. and a relative atmospheric humidity of approximately 90%.
The test is evaluated 10 days after the inoculation.

A further data set concerns Phakopsora pachyrhizi. Kind of data set: Example U: in vivo preventive test on Phakopsora test (soybeans), comparison vs. known compounds. The note with it: rate of application 5 ppm, evaluated 7 days after inoculation. How it is done: Example U: In Vivo Preventive Test on Phakopsora Test (Soybeans); Comparison of Compounds According to the Invention Vs. Known Compounds
After the spray coating has dried on, the plants are inoculated with an aqueous spore suspension of the causal agent of soybean rust (Phakopsora pachyrhizi) and stay for 24 h without light in an incubation cabinet at approximately 24° C. and a relative atmospheric humidity of 95%.
The plants remain in the incubation cabinet at approximately 24° C. and a relative atmospheric humidity of approximately 80% and a day/night interval of 12 h.
The test is evaluated 7 days after the inoculation.

With `OC(Cn1cncn1)(c1ccc(F)cc1F)C1(Oc2c(F)cc(Cl)cc2F)CC1` (racemic) [Example I-01], the chromatographic logP (usually a lipophilicity value derived from retention on a column) in data set [1] is 3.57. Also, the figures for the Efficacy in % in the data set on Venturia inaequalis and with Phakopsora pachyrhizi were 98% and 95%, respectively.

In data set [1], `OC(Cn1cncn1)(c1ccc(F)cc1F)C1(Oc2c(F)cc(Br)cc2F)CC1` (racemic) [Example I-03] gave a chromatographic logP of 3.7. For the same molecule, the results for the Efficacy in % with Venturia inaequalis and in the data set on Phakopsora pachyrhizi were 93% and 89%, respectively.

For the molecule `OC(Cn1cncn1)(c1ccc(F)cc1)C1(Oc2ccc(Cl)cc2Cl)CC1` (stereo not shown) [DE-A 3522440 Ex. I-44, reference compound], the Efficacy in % is given as 0% in the data set with Venturia inaequalis and 15% in the data set on Phakopsora pachyrhizi.

Regarding `OC(Cn1cncn1)(c1ccc(F)cc1F)C1(Oc2ccccc2)CC1` (stereo not shown) [DE-A 3522440 Ex. I-134, reference compound], the Efficacy in % in the data set on Venturia inaequalis is given as 76%; in the data set with Phakopsora pachyrhizi it was 0%.
